Laboratory results reported in patent US12630585B2, “Antibacterial tryglysin agents” (The Trustees of Princeton University, priority 2020, dated 2026).
Where no end group is shown, it is not given here.

Assays:
[1] = system: S. ferus DSM 20646; experiment: Culture growth upon treatment with 100 nM antibiotic; assay type: cell-based, Streptococcus ferus; parameters: key: “−” indicates not inhibited; “+” indicates mildly inhibited; “++” indicates inhibited
Experimental: (§1) Other streptococcal species have similar dose-dependent growth inhibitory responses to tryglysins. WGK peptides inhibit growth of several streptococcal species, but not E. faecalis or L. lactis. We extended the evaluation of tryglysin inhibitory activity to other bacterial species. Culture growth rates of several Gram-positive species were evaluated upon treatment with 100 nM each antibiotic. Most susceptible to treatments, with complete growth inhibition at only 100 nM tryglysins, were strains of S. mitis, S. oralis, and S. pneumoniae, each being members of the mitis group. […] Unaffected were cultures of S. pyogenes, Lactococcus lactis, and Enterococcus faecalis (FIG. S4A to F).
(§2) It can also be seen that the disclosed peptides inhibit growth of several streptococcal species, but not others outside of streptococcal species, such as E. faecalis or L. lactis.
(§3) Specifically, bacterial strains were grown from prestored glycerol stocks at −80° C. and inoculated into THY broth. Strains were incubated overnight at 37° C. in an atmosphere of 5% CO2, and the next morning, they were washed and resuspended in fresh, prewarmed CDM as described above in Example 4.

[2] = system: S. sanguinis ATCC 10556; experiment: as above; assay type: cell-based, Streptococcus sanguinis; parameters: key to Inhibition By (S. sanguinis ATCC 10556): “−” indicates not inhibited; “+” indicates mildly inhibited; “++” indicates inhibited
Experimental: as §1, §2, §3

[3] = system: E. faecalis V583; experiment: as above; assay type: cell-based, Enterococcus faecalis; parameters: key: “−” indicates not inhibited; “+” indicates mildly inhibited; “++” indicates inhibited
Experimental: as §1, §2, §3

[4] = system: S. mutans; experiment: Morphological changes (cell chaining) by microscopy after tryglysin treatment; assay type: cell-based, Streptococcus mutans; conditions: 100 nM
Experimental: FIG. 4 is a graph showing the quantification of chains greater than three cells in length for S. mutans exposed to 100 nM tryglysin A for 2 h, 5 h, or 7 h. A minimum of 100 cells were observed per condition and time point. −, no tryglysin A; +, 100 nM tryglysin A. **, P<0.01; ns, not significant by one-way ANOVA with Dunnet's multiple comparison posttest.
The impact of tryglysins on gross morphological changes to cell shape was examined at 2, 5, and 7 h after treatment with 100 nM tryglysin A or B by microscopy.
Prestored glycerol stocks of S. mutans strains at −80° C. were inoculated into THY broth and incubated overnight at 37° C. in an atmosphere of 5% CO2. CDM was prepared and prewarmed at 37° C. in an atmosphere of 5% CO2 overnight. The next morning, strains were transferred to sterile 15-ml conical tubes and centrifuged at room temperature at 4,000×g for 10 min. Strains were resuspended in 1 ml prewarmed CDM, transferred to microcentrifuge tubes, and centrifuged again at room temperature at 14,000×g for 5 min. Supernatant was discarded, and strains were resuspended in 1 ml fresh prewarmed CDM. Resuspended strains were then inoculated into 6 ml prewarmed CDM at 1:200 dilution. At each time point, strains were monitored by measuring OD600 with a GENESYS 30 Vis spectrophotometer (Thermo-Fisher)
If required, at 1 h postinoculation, 100 nM tryglysin A or B was added to the media. For microscopic analysis of samples, 2 ml of live cells was taken at 2 h, 5 h, and 7 h after the addition of tryglysins and examined using an Olympus CKX53 inverted microscope with a 40× LCACHN-iPC infinity objective (LCACHN40XIPC; numerical aperture, 0.55) connected to a SC50 camera (Olympus). Images were processed using Olympus Stream Image Analysis software (Olympus).

[5] = system: S. agalactiae A909; experiment: Culture growth upon treatment with 100 nM antibiotic; assay type: cell-based, Streptococcus agalactiae; parameters: key to Inhibition By (S. agalactiae A909): “−” indicates not inhibited; “+” indicates mildly inhibited; “++” indicates inhibited
Experimental: as §1, §2, §3

[6] = system: S. mutans; experiment: Dose-dependent growth inhibition of cultures with tryglysin titrations over 9 hours; assay type: cell-based, Streptococcus mutans
Experimental: (§4) Growth inhibition of S. mutans and S. ferus cultures was tested with titrations of both tryglysin A and B over a period of 9 hours.
Referring to FIG. 3A, the dose-dependent growth inhibition of S. mutans by Triglysin A can be seen. Cultures exposed to no tryglysin A 301, 10 nM tryglysin A 302, 100 nM tryglysin A 303, and 1 μM tryglysin A 304 can be seen.
Referring to FIG. 3C, the dose-dependent growth inhibition of S. mutans by Triglysin B can be seen. Cultures exposed to no tryglysin B 321, 10 nM tryglysin B 322, 100 nM tryglysin B 323, and 1 μM tryglysin B 324 can be seen.

[7] = system: S. pneumoniae D39; experiment: Culture growth upon treatment with 100 nM antibiotic; assay type: cell-based, Streptococcus pneumoniae; parameters: key: “−” indicates not inhibited; “+” indicates mildly inhibited; “++” indicates inhibited
Experimental: as §1, §2, §3

[8] = system: S. ferus; experiment: Dose-dependent growth inhibition of cultures with tryglysin titrations over 9 hours; assay type: cell-based, Streptococcus ferus; conditions: 9-h growth assay
Experimental: as §4
Referring to FIG. 3B, the dose-dependent growth inhibition of S. ferus by Triglysin A can be seen. Cultures exposed to no tryglysin A 311, 10 nM tryglysin A 312, and 100 nM tryglysin A 313 can be seen.
Referring to FIG. 3D, the dose-dependent growth inhibition of S. ferus by Triglysin B can be seen. Cultures exposed to no tryglysin B 331, 10 nM tryglysin B 332, and 100 nM tryglysin B 333 can be seen.

[9] = system: S. oralis 108; experiment: Culture growth upon treatment with 100 nM antibiotic; assay type: cell-based, Streptococcus oralis; parameters: key: “−” indicates not inhibited; “+” indicates mildly inhibited; “++” indicates inhibited
Experimental: as §1, §2, §3

[10] = system: S. mutans UA159; experiment: as above; assay type: cell-based, Streptococcus mutans; parameters: key: “−” indicates not inhibited; “+” indicates mildly inhibited; “++” indicates inhibited
Experimental: as §1, §2, §3

[11] = system: S. gordonii Challis Bt; experiment: as above; assay type: cell-based, Streptococcus gordonii; parameters: key: “−” indicates not inhibited; “+” indicates mildly inhibited; “++” indicates inhibited
Experimental: as §1, §2, §3

[12] = system: S. pyogenes NZ131; experiment: as above; assay type: cell-based, Streptococcus pyogenes; parameters: key: “−” indicates not inhibited; “+” indicates mildly inhibited; “++” indicates inhibited
Experimental: as §1, §2, §3

[13] = system: S. bovis JB1; experiment: as above; assay type: cell-based, Streptococcus bovis; parameters: key to Inhibition By (S. bovis JB1): “−” indicates not inhibited; “+” indicates mildly inhibited; “++” indicates inhibited
Experimental: as §1, §2, §3

[14] = system: S. mitis CCUG 31611; experiment: as above; assay type: cell-based, Streptococcus mitis; parameters: key: “−” indicates not inhibited; “+” indicates mildly inhibited; “++” indicates inhibited
Experimental: as §1, §2, §3

[15] = system: L. lactis ATCC 11454; experiment: as above; assay type: cell-based, Lactococcus lactis; parameters: key: “−” indicates not inhibited; “+” indicates mildly inhibited; “++” indicates inhibited
Experimental: as §1, §2, §3

[16] = to a lower degree than for S. agalactiae

Row | Substance | Inhibition By (S. ferus DSM 20646) [1] | Inhibition By (S. sanguinis ATCC 10556) [2] | Inhibition By (E. faecalis V583) [3] | chaining of S. mutans cells (chains greater than three cells in length) ([4]; 5 h after addition) | chaining of S. mutans cells (chains greater than three cells in length) ([4]; 7 h after addition) | Inhibition By (S. agalactiae A909) [5] | growth inhibition of S. mutans ([6]; 10 nM, 9-h growth assay) | Inhibition By (S. pneumoniae D39) [7] | growth inhibition of S. ferus ([8]; 10 nM) | growth inhibition of S. ferus ([8]; 100 nM) | Inhibition By (S. oralis 108) [9] | Inhibition By (S. mutans UA159) [10] | Inhibition By (S. gordonii Challis Bt) [11] | Inhibition By (S. pyogenes NZ131) [12] | Inhibition By (S. bovis JB1) [13] | Inhibition By (S. mitis CCUG 31611) [14] | Inhibition By (L. lactis ATCC 11454) [15] | other results
1 | Tryglysin A (VNSWGKH; bridge (positions not given here); also: macrocyclic, tetrahydro[5,6]benzindole modification, places not given here) | ++ | ++ | − | significantly increased | significantly increased | ++ | Significant growth inhibition | ++ | Significant growth inhibition | complete inhibition | ++ | ++ | + | − | + | ++ | − | inhibitory activity against S. sanguinis compared with variant B [2, 16]: greater inhibitory activity; inhibitory activity against S. agalactiae compared with variant B [5]: greater inhibitory activity; growth inhibition of S. mutans ([6]; 100 nM, 9-h growth assay): further inhibition; growth inhibition of S. mutans ([6]; 1 μM, 9-h growth assay): further inhibition; inhibitory activity against S. bovis compared with variant B [13, 16]: greater inhibitory activity
2 | Tryglysin B (VNCWGKH; bridge (positions not given here); also: macrocyclic, tetrahydro[5,6]benzindole modification, places not given here; listed as Streptococcus ferus) | ++ | ++ | − | appeared to do the same | appeared to do the same | + | some inhibition | ++ | minimal inhibition | compete inhibition | ++ | ++ | + | − | + | ++ | − | concentration required for significant growth inhibition of S. mutans ([6]; 9-h growth assay): at least 100 nM; concentration required for S. mutans to be completely inhibited ([6]; over the 9-h growth assay): 1 µM
